Measurements reported in a melting point compilation (Tetko et al.; mined from patent text by program, amines drawn as free bases though some values may be those of a salt).

| SMILES | melting point |
| --- | --- |
| Cc1ccc(Cn2nc(C(=O)O)cc2-c2ccc(Cl)c(C)c2)cc1 | 180 °C |
| CNC(=O)ON=C1SC(C)C(=O)NC1(C)C (stereo not drawn) | 190 to 191 °C |
| CC(c1ccc(-c2ccccc2Cl)cc1)S(=O)CC(=O)O (stereo not drawn) | 144 to 147 °C |
| CC(C)Oc1c(C(=O)Nc2ccccc2)oc2ccc(Cl)cc12 | 82 to 83 °C |
| CCOC(=O)N1CC2CC1CN2Cc1ccccc1 (stereo not drawn) | 124 to 128 °C |
| Cn1cc(CN2CCCNC2=C[N+](=O)[O-])cn1 | 186 to 190 °C |
| O=c1[nH]c(=S)c(C2c3ccccc3C=Cc3ccccc32)cn1-c1ccc(Sc2n[nH]c(C(F)(F)F)n2)nn1 | 165 °C |
| CCn1c(=O)c2c(nc(C=Cc3cc(OC)ccc3S(=O)(=O)O)n2C)n(CC)c1=O | 209 to 210 °C |
| CC(C)(C)[Si](C)(C)OC1C(n2ccc(=O)[nH]c2=O)OC(CO)C1(O)C#C[Si](C)(C)C (stereo not drawn) | 188 to 189 °C |
| O=C(O)CC1(c2ccc(Cl)c(Cl)c2)CCC(=O)NC1=O (stereo not drawn) | 203 °C |
| C=CCC1(CCNC(=O)C2CC2)c2cc(OC)ccc2CCC12OCCO2 (stereo not drawn) | 94 to 95 °C |
| Oc1cc(-c2ccccc2)ncn1 | 266 to 267 °C |
| COC(=O)c1cccc(N)n1 | 87 °C |
| C[C@H]1[C@H](O)C2(CC2)C(=O)N1c1ccc(C#N)c(Cl)c1 | 169 to 172 °C |
| Cc1ccsc1C1CC(=O)CC(=O)C1 | 166 to 168 °C |
| COC(=O)C[C@@H]1Nc2ccc(NC(=O)OC(C)(C)C)cc2CNC1=O | 167 to 169 °C |
| NS(=O)(=O)c1ccc(-n2nc(C(F)(F)F)cc2OS(=O)(=O)C(F)(F)F)cc1 | 114 to 115 °C |
| COc1cc(/C=C/C(=O)C#CCO)cc(OC)c1OC | 113 to 115 °C |
| CN[C@@H]1CN(c2c(F)cc3c(=O)c(C(=O)O)cn([C@@H]4C[C@@H]4F)c3c2C)C[C@@H]1C(C)C | 168 to 171 °C |

| SMILES | melting point |
| --- | --- |
| CCN(CC)CCC1CCc2cc(O)ccc2C1 (single isomer, unassigned; (+)) | 102 to 104 °C |
| NC(=O)Cc1c(-c2ccccc2)nn2cccnc12 | 217 to 219 °C |
| COc1cc2nc(N3CCN(C(=O)C=Cc4ccc(Cl)c(Cl)c4)CC3)nc(N)c2cc1OC | 196 to 198 °C |
| CCOC(=O)c1cnn2c1c(SC)nc1ccccc12 | 97 to 98 °C |
| C[Si](C)(C)OCc1cccc2c1c1c(c3ccccc32)-c2c(c3ccccc3c3ccccc23)C1 | 130 to 131 °C |
| COC(=O)COc1cccc(CNC(=O)C2Cc3ccccc3N2S(=O)(=O)c2ccc(-c3cccc(C(F)(F)F)c3)cc2)c1 (stereo not drawn) | 50 °C |
| C[Si](C)(C)C#Cc1cccc2ccccc12 | 41 to 43 °C |
| CCOC(=O)c1ncc2[nH]c3cccc(Oc4ncccn4)c3c2c1COC | 96 to 98 °C |
| Oc1ccc(-c2cc3ccccc3[nH]2)c(O)c1 | 188 °C |
| CC(C)CCCC(C)C1CCC2C3CC=C4CC(NC(=O)CCNC(=O)CCCCCNc5ccc([N+](=O)[O-])cc5[N+](=O)[O-])CCC4(C)C3CCC12C (stereo not drawn) | 197 to 198 °C |
| CCOC(=O)C1=C(C)NC(C=O)=C(C(=O)OCC)C1c1ccccc1[N+](=O)[O-] (stereo not drawn) | 101 to 103 °C |
| CCc1cc(C)cc(CC)c1C1C(=O)C2=CC(COCOC)CC2C1=O (stereo not drawn) | 155 to 156 °C |
| Nc1cccc(-c2n[nH]c3ncnc(Nc4cccc(Cl)c4)c23)c1 | 264 to 266 °C |
| Cc1ccc(C(=O)c2cnoc2C2CC2)cc1S(C)(=O)=O | 126 to 128 °C |
| COc1cc(N2CCN(Cc3ccccc3)CC2)c2ncccc2c1C | 129 to 133 °C |
| CC(=O)N(c1ccccc1)c1[nH]c2ccccc2c1Sc1ccccc1 | 66 to 68 °C |
| c1ccc(C(c2ccccc2)(c2cncnc2)n2ccnc2)cc1 | 161 °C |
| CCNS(=O)(=O)c1cccc(OCc2nc3ccccc3s2)c1 | 111 to 113 °C |
| c1ccc(-n2c(-c3ccc(OCCCN4CCCCC4)cc3)nc3ccccc32)cc1 | 86 °C |

| SMILES | melting point |
| --- | --- |
| CC(C)(C)c1nc2cc(N3CCCC3)c(NC(N)=S)cc2s1 | 221 °C |
| CCCc1c(C)[nH]c(C(=O)OCC)c1C | 104 to 106 °C |
| COC(=O)c1sc(C(=O)OC)c([N+](=O)[O-])c1OC | 80 to 82 °C |
| CCOC(=O)O[C@H](CCCc1ccc(OCc2nc(-c3ccccc3)sc2C)cc1)C(N)=O | 130 to 131 °C |
| COc1ccc(N2CCN(Cc3coc4ccccc34)CC2)cc1 | 110 to 112 °C |
| COc1ccc(S(=O)(=O)N2CCc3cccc(-c4ccc(N(C)C)cc4)c32)cc1 | 178 to 180 °C |
| COc1ccc2c(c1)Sc1ccc(SC)cc1C(=O)C2 | 127 °C |
| OCCC1(c2ccc(Cl)c(Cl)c2)CNCCO1 (stereo not drawn) | 90 to 91 °C |
| CC(C)(C)C(=O)OCc1nc(-c2ccc3c(c2)Nc2ccccc2S3)cs1 | 120 to 122 °C |
| CS(=O)(=O)c1ccc(-c2oc(CCC(=O)O)nc2-c2ccc(F)cc2)cc1 | 197 to 198 °C |
| CCOc1cc(C=O)cc2c1OC(C)(C)C2 | 33 to 36 °C |
| N#Cc1ccc2[nH]cc(CCNCC(F)(F)F)c2c1 | 102 °C |
| OC(CCN1CC=C(c2ccccc2)CC1)c1ccc(Cl)cc1 (stereo not drawn) | 141 °C |
| CN(C(=O)c1ccc(-n2cc3ccccc3n2)cc1)C1CCN(C(=O)OC(C)(C)C)CC1 | 176 to 177 °C |
| O=C(Nc1ccc(Oc2ccnc(N3CCC(O)CC3)n2)c2ccccc12)c1cc(F)cc(N2CCCCC2)c1 | 182 to 184 °C |
| COC1CSC2=C(SC1)C(OC(=O)N1CCN(C)CC1)N(c1ccc3ccc(Cl)cc3n1)C2=O (stereo not drawn) | 228 °C |
| COc1ccc(Br)c(COc2ccc3ccc(OC)cc3c2)c1 | 156 to 157 °C |
| O=C1N=C(c2ccc(C(=O)Cl)cc2)C(c2ccc(C(=O)Cl)cc2)O1 (stereo not drawn) | > 300 °C |
| O=C(O)COc1ccc(-c2c3ccccc3cc3sc4ccccc4c23)cc1 | 221 to 223 °C |

Results, then the compound that gave them:

| melting point | SMILES |
| --- | --- |
| 147 to 148 °C | CC(O)Cn1nc2c3c(cc([N+](=O)[O-])cc31)CCC2 (stereo not drawn) |
| 199 to 201 °C | CC1(O)c2ccccc2C2=NCCCN21 (stereo not drawn) |
| 56 to 60 °C | C=C(Cc1ccccc1)C(=O)N[C@@H](CC(C)C)C(=O)O |
| 144 to 145 °C | CCOC(=O)C(C)(C)n1c(=O)[nH]c2c(OC)cccc2c1=O |
| 132 to 135 °C | COc1ccc(CNc2nnc(NCCCO)c3ccc(C#N)cc23)cc1Cl |
| 174 °C | CC(C)(OCc1cc2nc(Cl)ccc2n1S(=O)(=O)c1cccc(Cl)c1Cl)C(=O)O |
| 153 to 156 °C | CS(=O)(=O)c1ccccc1-c1ccc(C(=O)N2Cc3ccc(C(=O)NCc4cccnc4)n3Cc3ccccc32)cc1 |
| 51 to 52 °C | CC(C)c1cc(O)cc(C(C)C)c1 |
| 148 to 150 °C | NC1=NCC(NC=O)(N[C@@H]2CC=C(CO)C2)C(Cl)=N1 (stereo partly drawn) |
| 188 to 190 °C | O=C1Cc2cc(C(F)(F)F)ccc2N1 |
| 180 °C | O=[N+]([O-])c1cc(Cl)cc(C(O)c2cc(Cl)cc([N+](=O)[O-])c2O)c1O |
| 169 to 171 °C | Cc1c(Br)ccc(S(C)(=O)=O)c1S(C)(=O)=O |
| 97 to 99 °C | CCCCCCCCCCCCCCCCCCOc1cc2ccccc2c(N)c1O |
| 176 to 178 °C | CCOC(=O)CN1C(=O)[C@@H](N)[C@H](c2ccccc2)Sc2ccccc21 |
| 120 to 122 °C | CC1(C)Oc2ccc(C#N)cc2C(c2cccn(Cc3ccccc3)c2=O)C1O (stereo not drawn) |
| 246 to 247 °C | CNC(=O)C(=O)c1cc(Cl)cc(C)c1NC(=O)c1cc(Br)nn1-c1ncccc1Cl |
| 189 to 191 °C | CCn1c(C)nc2c(C3=NC(C)(C(C)C)C(=O)N3)c(C(=O)OC)ccc21 (stereo not drawn) |
| 208 to 211 °C | OCc1c(Cl)cc(Cl)cc1C(O)(Cn1ccnc1)c1ccc(Cl)cc1Cl (stereo not drawn) |
| 188 to 190 °C | COC(=O)Cn1c(=O)c(-c2c(Cl)cccc2Cl)cc2cnc(N)nc21 |
| 262 to 264 °C | COc1ccc(-c2c(=O)[nH]c3cc(Cl)c(Cl)cc3[n+]2[O-])cc1 |
| 244 to 247 °C | CC(C)(C)c1cc(C(=O)NNC(=O)c2occ(-c3ccccc3)c2-c2ccccc2)ccc1O |

| melting point | SMILES |
| --- | --- |
| 134 to 148 °C | COc1cc(C(=O)N2CCC(CCN3CCCN(c4nc5ccccc5n4CCOCC#N)CC3)(c3ccccc3)C2)cc(OC)c1OC (stereo not drawn) |
| 113 to 115 °C | COC[C@@H](O)[C@@H](O)[C@H](OC)[C@@H](O)C=O |
| 229 °C | Cc1cc(C)c2nc(NCCC(N)=O)n(Cc3nc(C)ccc3O)c2c1 |
| 180 to 181 °C | CC(C)(C)OC(=O)NC1CCCC2(CCCC2)NC1=O (stereo not drawn) |
| 150 to 151 °C | CCOC(=O)CCc1c(C)c(NC(=O)CC(C)(C)C)c(C)c2c1OCC2c1ccc(C(C)C)cc1 (stereo not drawn) |
| > 280 °C | COC(=O)c1c(Br)cc(Br)cc1NC(=O)NCc1ccccc1 |
| > 220 °C | O=C1CCC(c2ccc(O)cc2)=NN1c1ccccn1 |
| 78 to 79 °C | CCCN1Cc2cscc2Nc2ccccc21 |
| 174 °C | CC(C)[C@H](NC(=O)OCc1ccccc1)C(=O)NCc1ccccc1 |
| > 250 °C | CN1CCN(c2ccc(-c3nc(C(=O)Nc4nccs4)c(-c4ccc(Cl)cc4)[nH]3)cc2)CC1 |
| 138 to 139 °C | CCC(=O)Nc1cc(-c2c(-c3cccc(C)c3)nc3cccnn23)ccn1 |
| 233 to 236 °C | CC(=O)Nc1ccc(Cc2nc3cc(CC4SC(=O)NC4=O)ccc3o2)cc1 (stereo not drawn) |
| 167 to 168 °C | CO/N=C(\C)c1ccc(Nc2c3ccccc3nc3occc23)cc1 |
| 152 to 155 °C | CCCCCOc1cc(C(=O)O)cc(S(N)(=O)=O)c1-c1ccccc1 |
| 126 to 127 °C | C/C(=C\CO)c1ccc(OCc2nc(-c3ccccc3)oc2C)cc1 |
| 281 °C | O=C(CCCl)Nc1ccc2c(c1)C(=O)c1cc(NC(=O)CCCl)ccc1C2=O |
| 110 °C | C#Cc1cn(C2CC(N=[N+]=[N-])C(COC(c3ccccc3)(c3ccccc3)c3ccccc3)O2)c(=O)[nH]c1=O (stereo not drawn) |
| 260 to 262 °C | CC(=O)Nc1ccc2ncnc(Nc3cccc(Cl)c3)c2c1 |
| 71 to 72 °C | COc1cccc(CN2CCc3cc(OCc4ccccc4)c(OC)cc3C2)c1 |
| 190 °C | CC1(C)Oc2ccc(S(=O)(=O)C(F)(F)F)cc2[C@@H](N2Cc3ccccc3C2=O)[C@@H]1O[N+](=O)[O-] (relative stereo) |
